{
  "source": "patent US12226415B2",
  "about": "“Methods and compositions for the treatment of hair loss” (Aneira Pharma Inc., priority 2019, dated 2025)",
  "origin": "cited, not measured here",
  "key": {"human FP receptors": {"biological_target": "human FP receptors (Homo sapiens, UniProt P43088)", "sequence (P43088 whole entry)": "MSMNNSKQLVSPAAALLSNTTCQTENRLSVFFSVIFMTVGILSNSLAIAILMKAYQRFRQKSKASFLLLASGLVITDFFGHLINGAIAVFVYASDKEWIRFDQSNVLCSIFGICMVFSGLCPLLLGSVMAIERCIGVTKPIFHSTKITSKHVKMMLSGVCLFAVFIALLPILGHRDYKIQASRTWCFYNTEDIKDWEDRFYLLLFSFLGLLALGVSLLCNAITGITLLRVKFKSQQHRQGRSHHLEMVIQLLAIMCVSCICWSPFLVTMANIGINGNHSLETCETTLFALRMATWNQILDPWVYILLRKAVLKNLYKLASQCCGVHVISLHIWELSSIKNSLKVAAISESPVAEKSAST"}, "hair growth": {"test_system": "hair growth", "settings": "for hair growth: McCarey et al. 2004"}, "intraocular pressure": {"test_system": "intraocular pressure", "settings": "glaucomatous monkey eyes, Gagliuso et al. 2004"}, "[1]": {"test_system": "elevated intraocular pressure", "settings": "some human glaucoma patients non-responsive to latanoprost, Gandolfi 2003"}, "[2]": {"test_system": "production of dihydrotestosterone (DHT)", "settings": "oral; including in the prostate gland and the scalp"}, "[3]": {"settings": "propylene glycol, methanol, ethanol and 2-propanol"}},
  "data": [
    {"smiles": "O=C(O)CCC/C=C\\C[C@@H]1[C@@H](CC[C@@H](O)CCc2ccccc2)[C@H](O)C[C@@H]1O", "note": "[Latanoprost free acid]", "values": [
      {"measurement": "potency relative to PGF2α", "setting": "human FP receptors", "value": "twice the potency of PGF2α"}
    ]},
    {"smiles": "CCCCCCCC(=O)CC[C@@H]1[C@@H](C/C=C\\CCCC(=O)OC(C)C)[C@@H](O)C[C@H]1O", "note": "[Uenoprostone isopropyl ester]", "values": [
      {"measurement": "hair growth", "setting": "hair growth", "value": "no hair growth"},
      {"measurement": "incidence of iris pigmentation and eyelash changes", "setting": "hair growth; two randomized clinical trials, 0.15%", "value": "Low incidence"}
    ]},
    {"smiles": "CCNC(=O)CCC/C=C\\C[C@@H]1[C@@H](/C=C/[C@@H](O)CCc2ccccc2)[C@H](O)C[C@@H]1O", "note": "[bimatoprost]", "values": [
      {"measurement": "effect on elevated intraocular pressure in combination with latanoprost", "setting": "intraocular pressure", "value": "additive"},
      {"measurement": "response in reducing elevated intraocular pressure", "setting": "[1]", "value": "responsive"}
    ]},
    {"smiles": "CC(C)(C)NC(=O)[C@H]1CC[C@H]2[C@@H]3CC[C@H]4NC(=O)C=C[C@]4(C)[C@H]3CC[C@]12C", "note": "[finasteride, (1S,3aS,3bS,5aR,9aR,9bS,11aS)—N-tert-butyl-9a,11a-dimethyl-7-oxo-1,2,3,3a,3b,4,5,5a,6,9b,10,11-dodecahydroindeno[5,4-f]quinoline-1-carboxamide]", "values": [
      {"measurement": "decrease of production of dihydrotestosterone (DHT)", "setting": "[2]", "value": "about 70%"}
    ]},
    {"smiles": "CC(C)OC(=O)CCC/C=C\\C[C@@H]1[C@@H](CC[C@@H](O)CCc2ccccc2)[C@H](O)C[C@@H]1O", "note": "[latanoprost, isopropyl ester of 17-phenyl-13,14-dihydro prostaglandin F2a]", "values": [
      {"measurement": "solubility (concentration that can be obtained)", "setting": "[3]", "value": "≥ 5", "unit": "%"}
    ]},
    {"smiles": "CCCCCCCC(=O)CC[C@@H]1[C@@H](C/C=C\\CCCC(=O)O)[C@@H](O)C[C@H]1O", "note": "[uenoprostone free acid]", "values": [
      {"measurement": "hair growth", "setting": "hair growth", "value": "no hair growth"}
    ]}
  ]
}
